This test relates to Swiss mice, Sarcoma 180 sc, mean tumor weight T/C. Description: NCI In Vivo Anticancer Drug Screen. Data for tumor model Sarcoma 180 (subcutaneous) in Swiss mice. As to conditions: endpoint: mean tumor weight, higher = larger tumour. The procedure, abridged: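 Antitumor activity is assessed in mice with transplantable tumors. Treated (T) and vehicle control (C) groups are compared on survival or tumor size.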

[1] abbreviates: dose: 125.0 mg/kg/injection, schedule: Q01DX007 (sc), vehicle: steriod suspending solution.
The mark [2] stands for this setting: dose: 62.0 mg/kg/injection, schedule: Q01DX007 (ip), vehicle: carboxymethylcellulose (CMC).

As usually defined, the T/C is the result in the treated group divided by that in the control group, in per cent.

“And” between values parts separate entries of the source, which are not always exact repeats. Identical values can stand only once.

Turning to `CCOC(=O)Sc1ncnc2nc[nH]c12`, the T/C is 109 % of control (dose: 1.7 mg/kg/injection, schedule: Q01DX007 (ip), vehicle: carboxymethylcellulose (CMC)); 84 % of control (dose: 3.5 mg/kg/injection, schedule: Q01DX007 (ip), vehicle: carboxymethylcellulose (CMC)); 102 % of control (dose: 7.0 mg/kg/injection, schedule: Q01DX007 (ip), vehicle: carboxymethylcellulose (CMC)); 41 % of control (dose: 14.0 mg/kg/injection, schedule: Q01DX007 (ip), vehicle: carboxymethylcellulose (CMC)); 46 % of control (dose: 28.0 mg/kg/injection, schedule: Q01DX007 (ip), vehicle: carboxymethylcellulose (CMC)); 56 % of control (dose: 44.0 mg/kg/injection, schedule: Q01DX007 (ip), vehicle: carboxymethylcellulose (CMC)). Also, the T/C reads like this: (dose: 56.0 mg/kg/injection, schedule: Q01DX007 (ip), vehicle: carboxymethylcellulose (CMC)) 30 % of control; (dose: 66.0 mg/kg/injection, schedule: Q01DX007 (ip), vehicle: carboxymethylcellulose (CMC)) 61 % of control; (dose: 100.0 mg/kg/injection, schedule: Q01DX007 (ip), vehicle: carboxymethylcellulose (CMC)) 35 % of control; (dose: 112.0 mg/kg/injection, schedule: Q01DX007 (ip), vehicle: carboxymethylcellulose (CMC)) 22 % of control; (dose: 150.0 mg/kg/injection, schedule: Q01DX007 (ip), vehicle: carboxymethylcellulose (CMC)) 30 % of control.

On to `S=C(N=Nc1ccccc1)NNc1ccccc1`, for which the T/C (dose: 37.5 mg/kg/injection, schedule: Q01DX007 (ip), vehicle: carboxymethylcellulose (CMC)) is 110 % of control and the T/C (dose: 75.0 mg/kg/injection, schedule: Q01DX007 (ip), vehicle: carboxymethylcellulose (CMC)) was 47 % of control.

For the compound `CCC(=O)O[C@H]1CC[C@H]2[C@@H]3CCC4=CC(=O)CC[C@]4(C)[C@H]3CC[C@]12C`, the T/C was 102 % of control (dose: 90.0 mg/kg/injection, schedule: Q01DX007 (sc), vehicle: steriod suspending solution); 82 % of control under setting [1]; 104 % of control (dose: 180.0 mg/kg/injection, schedule: Q01DX007 (sc), vehicle: steriod suspending solution); 102 % of control (dose: 250.0 mg/kg/injection, schedule: Q01DX007 (sc), vehicle: steriod suspending solution); 107 % of control (dose: 360.0 mg/kg/injection, schedule: Q01DX007 (sc), vehicle: steriod suspending solution); 60 % of control (dose: 500.0 mg/kg/injection, schedule: Q01DX007 (sc), vehicle: steriod suspending solution). Also, the T/C was 69 % of control (dose: 720.0 mg/kg/injection, schedule: Q01DX007 (sc), vehicle: steriod suspending solution) and 64 % of control (dose: 1000.0 mg/kg/injection, schedule: Q01DX007 (sc), vehicle: steriod suspending solution).

For `C=C(C)C(=O)OCC1CO1` (configuration not stated), the T/C runs as follows: (dose: 250.0 mg/kg/injection, schedule: Q01DX007 (ip), vehicle: other) 97 % of control; (dose: 375.0 mg/kg/injection, schedule: Q01DX007 (ip), vehicle: other) 74 % of control.

Turning to `CC(C)(C)C(=O)/C=C/c1ccc([N+](=O)[O-])cc1`, the T/C (dose: 50.0 mg/kg/injection, schedule: Q#A X014 (ip), vehicle: methylcellulose (MC)) was 92 % of control and the T/C (dose: 187.5 mg/kg/injection, schedule: Q#A X014 (ip), vehicle: methylcellulose (MC)) was 70 % of control.

Turning to `C[C@]12CC[C@H]3[C@@H](CC=C4C[C@@H](OC5CCCCO5)CC[C@@]43C)[C@@H]1CC[C@@H]2O` (some centres not stated), the T/C by setting is: (dose: 25.0 mg/kg/injection, schedule: Q#A X014 (oral), vehicle: steriod suspending solution) 95 % of control; (dose: 75.0 mg/kg/injection, schedule: Q#A X014 (oral), vehicle: steriod suspending solution) 95 % of control; (dose: 187.5 mg/kg/injection, schedule: Q#A X014 (oral), vehicle: steriod suspending solution) 80 % of control.

For the compound `CC(=O)N(C)C`, the T/C by setting is: under setting [2], 100 % of control; (dose: 125.0 mg/kg/injection, schedule: Q01DX007 (ip), vehicle: carboxymethylcellulose (CMC)) 95 % of control; (dose: 500.0 mg/kg/injection, schedule: Q01DX007 (ip), vehicle: carboxymethylcellulose (CMC)) 65 % of control; (dose: 750.0 mg/kg/injection, schedule: Q01DX007 (ip), vehicle: saline) 104 % of control; (dose: 1000.0 mg/kg/injection, schedule: Q01DX007 (ip), vehicle: saline) 70 % of control.

In the case of `OC1C(O)C(O)C2(CO2)C(O)C1O` (configuration not stated), the T/C is 122 % of control (dose: 150.0 mg/kg/injection, schedule: Q#A X014 (ip), vehicle: saline) and 79 % of control (dose: 300.0 mg/kg/injection, schedule: Q#A X014 (ip), vehicle: saline).

For `Cc1ncc(CO)c(CNC(=O)N(C)N=O)c1O`, the T/C under setting [2] is 60 % of control.

Regarding `Cc1cc(N=Nc2ccc(Sc3ccc(N=Nc4ccc(O)c(C(=O)O)c4)cc3)cc2)c(N)c(N=Nc2ccc(C(=O)O)cc2)c1N`, the T/C runs as follows: (dose: 6.25 mg/kg/injection, schedule: Q01DX007 (ip), vehicle: water) 114 % of control; (dose: 12.5 mg/kg/injection, schedule: Q01DX007 (ip), vehicle: water) 106 % of control; (dose: 25.0 mg/kg/injection, schedule: Q01DX007 (ip), vehicle: water) 83 % of control.

Take `O=NN(CCCl)C(=O)NCCCl`: the T/C was 27 % of control (dose: 1.5 mg/kg/injection, schedule: Q01DX007 (ip), vehicle: saline); 79 % of control (dose: 2.6 mg/kg/injection, schedule: Q01DX007 (ip), vehicle: saline); 44 % of control (dose: 3.0 mg/kg/injection, schedule: Q01DX007 (ip), vehicle: saline); 60 % of control (dose: 3.0 mg/kg/injection, schedule: Q01DX007 (oral), vehicle: carboxymethylcellulose (CMC)); 75 % of control (dose: 4.0 mg/kg/injection, schedule: Q01DX007 (ip), vehicle: carboxymethylcellulose (CMC)); 90 % of control (dose: 4.3 mg/kg/injection, schedule: Q01DX007 (ip), vehicle: saline). The T/C is 46 % of control and 58 % of control (dose: 6.0 mg/kg/injection, schedule: Q01DX007 (ip), vehicle: carboxymethylcellulose (CMC)); 47 % of control (dose: 6.0 mg/kg/injection, schedule: Q01DX007 (ip), vehicle: saline); 32 % of control (dose: 6.0 mg/kg/injection, schedule: Q01DX007 (oral), vehicle: carboxymethylcellulose (CMC)); 62 % of control (dose: 7.2 mg/kg/injection, schedule: Q01DX007 (ip), vehicle: saline); 35 % of control (dose: 8.0 mg/kg/injection, schedule: Q01DX007 (ip), vehicle: carboxymethylcellulose (CMC)); 27 % of control (dose: 10.0 mg/kg/injection, schedule: Q01DX007 (ip), vehicle: carboxymethylcellulose (CMC)). Besides, the T/C runs as follows: (dose: 12.0 mg/kg/injection, schedule: Q01DX007 (ip), vehicle: carboxymethylcellulose (CMC)) 10 % of control; (dose: 12.0 mg/kg/injection, schedule: Q01DX007 (ip), vehicle: saline) 36 % of control and 44 % of control; (dose: 12.0 mg/kg/injection, schedule: Q01DX007 (oral), vehicle: carboxymethylcellulose (CMC)) 12 % of control; (dose: 20.0 mg/kg/injection, schedule: Q01DX007 (ip), vehicle: saline) 24 % of control; (dose: 24.0 mg/kg/injection, schedule: Q01DX007 (oral), vehicle: carboxymethylcellulose (CMC)) 6 % of control.

With `NCC(O)c1ccc(O)c(O)c1` (configuration not stated), the T/C runs as follows: (dose: 3.1 mg/kg/injection, schedule: Q01DX007 (ip), vehicle: saline) 84 % of control; (dose: 12.5 mg/kg/injection, schedule: Q01DX007 (ip), vehicle: saline) 57 % of control and 77 % of control.

As for `CCC(c1ccc2cc(OC)ccc2c1)C(C)(C)C(=O)F` (configuration not stated), the T/C was 35 % of control and 52 % of control (dose: 55.0 mg/kg/injection, schedule: Q01DX007 (sc), vehicle: steriod suspending solution); 31 % of control and 49 % of control (dose: 83.0 mg/kg/injection, schedule: Q01DX007 (sc), vehicle: steriod suspending solution); 27 % of control and 39 % of control under setting [1]; 39 % of control and 40 % of control (dose: 188.0 mg/kg/injection, schedule: Q01DX007 (sc), vehicle: steriod suspending solution).

These data come from PubChem BioAssay AID342 (DTP/NCI, 2004).
